Our source for the % of inhibition and % of control values is ChEMBL document CHEMBL5465560, “Selectivity Literature for EUbOPEN Chemogenomic Library” (2024).

Molecules are shown by their SMILES. Substitutions are numbered along the chain they refer to.

In assay [1] the target is 5'-AMP-activated protein kinase catalytic subunit alpha-1 (Homo sapiens, UniProt Q13131). In words: Selectivity interaction (Kinase panel (Invitrogen)) EUB0000639a PRKAA1. Particulars: at 200 nM.
Assay [2] deals with Cyclin-dependent kinase 17 (Homo sapiens) (UniProt Q00537). The assay can be described thus: Selectivity interaction (ActivX KiNativ screen (kinase selectivity in THP-1 cell lysates)) EUB0000639a CDK17. The following applies: lysate, at 0.01 µM. It is filed as subcellular.
The target in assay [3] is Receptor-type tyrosine-protein kinase FLT3 (Homo sapiens) (UniProt P36888). The assay can be described thus: (§1) Selectivity interaction (Ambit KINOMEscan and KiNATiv profiling in Jurkat cells) EUB0000090b FLT3. The class given is cell-based. Particulars: at 1 µM.
For assay [4], the system named is T1, Receptor-type tyrosine-protein kinase FLT3 (Homo sapiens), P36888 [K663Q].
T1 sequence (whole entry): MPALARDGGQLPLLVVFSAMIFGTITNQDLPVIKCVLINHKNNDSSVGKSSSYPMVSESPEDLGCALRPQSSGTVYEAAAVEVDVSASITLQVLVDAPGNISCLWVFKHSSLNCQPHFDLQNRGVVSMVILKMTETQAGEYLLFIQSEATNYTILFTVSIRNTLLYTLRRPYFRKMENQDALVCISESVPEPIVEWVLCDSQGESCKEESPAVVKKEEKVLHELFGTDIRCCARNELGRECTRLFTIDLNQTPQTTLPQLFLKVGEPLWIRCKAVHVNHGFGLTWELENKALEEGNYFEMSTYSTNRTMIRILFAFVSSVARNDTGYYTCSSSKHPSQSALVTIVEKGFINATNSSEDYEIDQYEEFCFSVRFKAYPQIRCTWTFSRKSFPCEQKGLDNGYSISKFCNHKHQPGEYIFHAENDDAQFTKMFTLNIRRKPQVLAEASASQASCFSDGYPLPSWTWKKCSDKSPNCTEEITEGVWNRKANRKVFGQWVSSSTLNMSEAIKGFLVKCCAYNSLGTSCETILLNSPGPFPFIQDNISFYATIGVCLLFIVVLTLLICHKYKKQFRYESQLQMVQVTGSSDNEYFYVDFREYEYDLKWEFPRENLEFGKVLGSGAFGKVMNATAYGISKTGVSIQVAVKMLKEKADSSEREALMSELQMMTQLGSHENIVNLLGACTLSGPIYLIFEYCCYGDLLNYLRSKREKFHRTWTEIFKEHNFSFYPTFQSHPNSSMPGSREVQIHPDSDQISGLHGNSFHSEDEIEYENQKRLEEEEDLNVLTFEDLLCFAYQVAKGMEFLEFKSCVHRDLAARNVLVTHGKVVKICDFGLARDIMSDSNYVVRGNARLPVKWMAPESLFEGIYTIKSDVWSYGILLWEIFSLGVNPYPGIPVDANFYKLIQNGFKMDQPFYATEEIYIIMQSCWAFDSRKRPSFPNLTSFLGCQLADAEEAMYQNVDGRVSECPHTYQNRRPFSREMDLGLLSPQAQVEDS
The description is as §1. It is filed as cell-based. Particulars: at 1 µM.

For assay [5], the system named is T2, Receptor-type tyrosine-protein kinase FLT3 (Homo sapiens), P36888 [N841I].
T2 sequence (whole entry): T1 sequence (whole entry) with Q663K, N841I
The assay is described as §1. It is filed as cell-based. The following applies: at 1 µM.

For assay [6], the target named is Calcium/calmodulin-dependent protein kinase type 1G (Homo sapiens) (UniProt Q96NX5). The assay can be described thus: Selectivity interaction (KinomeScan (DiscoverX)) EUB0000092b CAMK1G. The following applies: at 10 µM.
Calcium/calmodulin-dependent protein kinase type 1G (Homo sapiens), sequence (Q96NX5 whole entry): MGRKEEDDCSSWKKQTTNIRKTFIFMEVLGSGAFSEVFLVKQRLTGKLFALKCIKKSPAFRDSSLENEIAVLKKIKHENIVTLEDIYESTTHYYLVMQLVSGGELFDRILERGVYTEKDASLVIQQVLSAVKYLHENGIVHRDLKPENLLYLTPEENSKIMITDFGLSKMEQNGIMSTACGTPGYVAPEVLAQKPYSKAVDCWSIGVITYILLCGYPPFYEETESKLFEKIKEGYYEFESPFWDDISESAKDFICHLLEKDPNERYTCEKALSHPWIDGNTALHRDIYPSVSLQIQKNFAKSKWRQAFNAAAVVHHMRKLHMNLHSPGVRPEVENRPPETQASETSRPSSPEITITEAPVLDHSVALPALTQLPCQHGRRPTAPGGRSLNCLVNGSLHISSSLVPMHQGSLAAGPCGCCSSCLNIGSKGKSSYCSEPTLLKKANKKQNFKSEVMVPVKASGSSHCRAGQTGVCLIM

Cyclin-dependent kinase 17 (Homo sapiens), sequence (Q00537 whole entry, looked up): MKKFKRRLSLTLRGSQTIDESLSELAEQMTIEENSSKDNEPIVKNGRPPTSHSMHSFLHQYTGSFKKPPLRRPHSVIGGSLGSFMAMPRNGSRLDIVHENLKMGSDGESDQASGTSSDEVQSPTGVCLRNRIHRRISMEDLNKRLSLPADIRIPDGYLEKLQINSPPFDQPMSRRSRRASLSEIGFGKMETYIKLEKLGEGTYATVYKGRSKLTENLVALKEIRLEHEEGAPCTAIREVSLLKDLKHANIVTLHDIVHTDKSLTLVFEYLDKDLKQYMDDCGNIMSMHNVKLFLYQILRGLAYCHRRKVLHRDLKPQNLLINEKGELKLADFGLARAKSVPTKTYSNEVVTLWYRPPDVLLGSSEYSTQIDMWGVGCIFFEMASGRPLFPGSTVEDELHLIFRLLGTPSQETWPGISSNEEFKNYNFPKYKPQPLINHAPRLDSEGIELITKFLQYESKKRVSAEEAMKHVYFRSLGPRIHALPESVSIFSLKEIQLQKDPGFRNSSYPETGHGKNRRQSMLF
5'-AMP-activated protein kinase catalytic subunit alpha-1, sequence (Q13131 whole entry, looked up): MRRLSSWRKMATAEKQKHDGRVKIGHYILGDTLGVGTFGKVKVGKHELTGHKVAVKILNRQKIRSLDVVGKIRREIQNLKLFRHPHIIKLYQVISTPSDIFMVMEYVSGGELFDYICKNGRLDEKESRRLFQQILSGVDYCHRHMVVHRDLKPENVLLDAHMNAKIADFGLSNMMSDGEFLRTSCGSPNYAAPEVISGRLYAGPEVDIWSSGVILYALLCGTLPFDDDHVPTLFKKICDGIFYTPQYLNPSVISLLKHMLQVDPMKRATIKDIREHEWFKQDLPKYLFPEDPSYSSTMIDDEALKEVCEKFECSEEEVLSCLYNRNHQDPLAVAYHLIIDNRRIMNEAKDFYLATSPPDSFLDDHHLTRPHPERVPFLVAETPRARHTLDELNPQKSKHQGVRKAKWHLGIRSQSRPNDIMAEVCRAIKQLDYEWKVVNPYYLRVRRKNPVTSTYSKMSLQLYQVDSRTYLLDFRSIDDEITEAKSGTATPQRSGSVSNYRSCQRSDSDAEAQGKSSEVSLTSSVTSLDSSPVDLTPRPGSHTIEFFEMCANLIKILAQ

For `CC[C@@H]1[C@H](F)C(=O)N[C@@H]1COc1nccc2cc(C(N)=O)c(OC)cc12` [ZIMLOVISERTIB], the % of inhibition in assay [1] is 13.1%; in assay [2] it was 16.3%.

Consider `CN(C)C/C=C/C(=O)Nc1ccc(C(=O)N2CCCC(Nc3ncc(Cl)c(-c4c[nH]c5ccccc45)n3)C2)cc1` (stereo unspecified), for which the % of control in assay [3] was 94%; in assay [4], 84%; in assay [5], 89%.

Take `CCC(=O)N1CCN(c2ccc(-n3c(=O)ccc4cnc5ccc(-c6cnc7ccccc7c6)cc5c43)cc2C(F)(F)F)CC1`: in assay [6], the % of control is 74%.
